The source of these data is patent publication US10030039B2, “Anti-cancer agent and cancer cell killing method” (IHI Corporation, priority 2014, dated 2018).

This assay concerns cancer cell line (MDA-MB-231) for triple-negative breast cancer. Kind of assay: Cancer Cell Killing Effect Assay 5 (XTT assay). Type of assay: cell-based. To be noted: MDA-MB-231, 24 hours, 37° C., 5% CO2; 3.750 and 7.500 μM; FIG. 6.

Procedure: Cancer Cell Line: Cancer Cell Line (MDA-MB-231) (the G0 Phase) for Triple-Negative Breast Cancer XTT cell proliferation assay kit (manufactured by ATCC) The XTT labeled liquid mixture was adjusted by mixing the XTT reagent (5 ml) and an activation solution (0.1 ml). The cell proliferation assay was conducted in accordance with ATCC's experiment protocol. […] The cancer cell line for the triple-negative breast cancer was cultured by the same method as that of Example 4. RPMI-1640, 10% inactivated bovine serum (GIBCO, USA), and 100 units/ml of penicillin-streptomycin were added to each well (100 μl) of the microplate (for cell proliferation and with 96 holes and a flat bottom) and 3×10^5 cultured cells were seeded. […] The XTT assay was performed by the same method as that of Example 4. The cell survival rate was calculated on the basis of the results of the absorbance measurement and by the method explained in [Cancer Cell Killing Effect Assay 3].

For the compound `CC(=O)O[C@H]1C(=O)[C@@]2(C)[C@H]([C@H](OC(=O)c3ccccc3)[C@]3(O)C[C@H](OC(=O)[C@H](O)[C@@H](NC(=O)c4ccccc4)c4ccccc4)C(C)=C1C3(C)C)[C@]1(OC(C)=O)CO[C@@H]1C[C@@H]2O` [paclitaxel], the “concentration dependence of reduction of cell survival rate / cell killing effect” value is listed as “concentration-dependent up to a specified concentration”.
